Measured values taken from ChEMBL document CHEMBL1201862, “PubChem BioAssay data set” (2004).
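Tested at 5 concentrations; 48 h exposure; 96-well plates; endpoints linearly interpolated, else capped at highest concentration. The concentration for 50% growth inhibition is given as GI50.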 Activity calls are given as the source filed them. Rule as the data show it: active = GI50 up to about 1.1 µM and inactive = higher.

Columns and labels:
Experiment in all cases: NCI-60 cell line screen, 48 h
K562 = test system: K562
CAKI-1 = test system: CAKI-1
TK-10 = test system: TK-10
HT-29 = test system: HT-29
HCC 2998 = test system: HCC 2998
COLO 205 = test system: COLO 205
A549 = test system: A549
UACC-257 = test system: UACC-257
SNB-19 = test system: SNB-19
HOP-92 = test system: HOP-92
HL-60 = test system: HL-60
EKVX = test system: EKVX
IGROV-1 = test system: IGROV-1
M14 = test system: M14
NCI-H226 = test system: NCI-H226
SN12C = test system: SN12C
OVCAR-4 = test system: OVCAR-4
SW-620 = test system: SW-620
RPMI-8226 = test system: RPMI-8226
SK-MEL-5 = test system: SK-MEL-5

Measured: GI50

O=c1oc2ccccc2n1P(=O)(n1c(=O)oc2ccccc21)n1c(=O)oc2ccccc21
inactive: K562 > 100 µM | CAKI-1 > 100 µM | TK-10 > 100 µM | HT-29 > 100 µM | HCC 2998 > 100 µM | COLO 205 > 100 µM | A549 > 100 µM | UACC-257 > 100 µM | SNB-19 > 100 µM | HOP-92 > 100 µM | HL-60 > 100 µM | EKVX 97.7 µM | IGROV-1 > 100 µM | M14 > 100 µM | NCI-H226 > 100 µM | SN12C > 100 µM | OVCAR-4 > 100 µM | SW-620 > 100 µM

O=C1OC2(OC2c2ccc(Cl)cc2)c2ccccc21 (stereo not drawn)
inactive: K562 53.1 µM | CAKI-1 > 100 µM | TK-10 > 100 µM | HT-29 > 100 µM | HCC 2998 > 100 µM | COLO 205 > 100 µM | A549 > 100 µM | SNB-19 73.8 µM | HOP-92 > 100 µM | HL-60 34.3 µM | EKVX > 100 µM | RPMI-8226 89.1 µM | IGROV-1 > 100 µM | M14 > 100 µM | NCI-H226 > 100 µM | SN12C > 100 µM | OVCAR-4 42.6 µM | SW-620 > 100 µM

C=CCP(=O)(CC=C)C(Cl)Cl
inactive: K562 > 100 µM | CAKI-1 > 100 µM | SK-MEL-5 > 100 µM | TK-10 > 100 µM | HT-29 > 100 µM | HCC 2998 > 100 µM | COLO 205 > 100 µM | A549 > 100 µM | UACC-257 > 100 µM | SNB-19 > 100 µM | HOP-92 > 100 µM | HL-60 > 100 µM | RPMI-8226 > 100 µM | IGROV-1 > 100 µM | M14 > 100 µM | NCI-H226 > 100 µM | SN12C > 100 µM | OVCAR-4 > 100 µM | SW-620 > 100 µM

O=[N+]([O-])C(=C/c1ccccc1)/C(=C\c1ccccc1)[N+](=O)[O-]
inactive: K562 7.11 µM | CAKI-1 15.7 µM | SK-MEL-5 15.9 µM | TK-10 16.1 µM | HT-29 17.6 µM | HCC 2998 21.6 µM | COLO 205 15.2 µM | A549 28.6 µM | UACC-257 17 µM | SNB-19 18.2 µM | HOP-92 21.3 µM | EKVX 17.3 µM | RPMI-8226 10.3 µM | IGROV-1 16.8 µM | M14 19.1 µM | NCI-H226 19.1 µM | SN12C 23.4 µM | OVCAR-4 21.3 µM | SW-620 13.5 µM

COc1cc2c(cc1OC)-c1cc3ccccc3c(=O)n1CC2
inactive: K562 26.1 µM | CAKI-1 27.2 µM | SK-MEL-5 7.26 µM | TK-10 19.9 µM | HT-29 24.8 µM | HCC 2998 16.6 µM | COLO 205 37.8 µM | A549 11.4 µM | UACC-257 40.8 µM | SNB-19 43.7 µM | HOP-92 14.1 µM | EKVX 24.6 µM | RPMI-8226 13.7 µM | IGROV-1 19.5 µM | M14 31.2 µM | NCI-H226 26.8 µM | SN12C 26.1 µM | OVCAR-4 41.6 µM | SW-620 29.1 µM

c1ccc(/N=C2\SC3=NCCN3\C2=N/c2ccccc2)cc1
inactive: K562 4.24 µM | CAKI-1 17.9 µM | SK-MEL-5 15.5 µM | HT-29 16.4 µM | HCC 2998 18.7 µM | COLO 205 15.5 µM | SNB-19 17.1 µM | HOP-92 27.1 µM | RPMI-8226 16.3 µM | IGROV-1 > 10 µM | M14 17.5 µM | NCI-H226 20.6 µM | SN12C 22.8 µM

NC1(C(=O)O)CCCC1 [CYCLOLEUCINE]
inactive: K562 > 625 µM | CAKI-1 > 625 µM | SK-MEL-5 > 625 µM | HT-29 > 625 µM | HCC 2998 > 625 µM | COLO 205 > 625 µM | A549 > 625 µM | UACC-257 > 625 µM | SNB-19 > 99.1 µM | HOP-92 > 625 µM | HL-60 > 625 µM | EKVX > 578 µM | RPMI-8226 > 625 µM | IGROV-1 > 625 µM | NCI-H226 > 625 µM | SN12C > 91 µM | OVCAR-4 > 625 µM | SW-620 > 625 µM

Nc1n[nH]c2nc3ccccc3nc12 [QUINOXALINE1]
inactive: K562 > 100 µM | CAKI-1 31.9 µM | SK-MEL-5 > 100 µM | TK-10 70.1 µM | HT-29 59.6 µM | HCC 2998 > 100 µM | COLO 205 61.8 µM | A549 61.9 µM | UACC-257 > 100 µM | SNB-19 > 100 µM | HOP-92 > 100 µM | HL-60 34.8 µM | EKVX 73.3 µM | RPMI-8226 36.1 µM | IGROV-1 18.1 µM | NCI-H226 91.8 µM | SN12C > 100 µM | OVCAR-4 > 100 µM | SW-620 86.7 µM
